Data published in patent publication US11661437B2, “Steroid derivative regulators, method for preparing the same, and uses thereof” (priority 2018, dated 2023).

Tested on: GABA-A receptor
Experiment: 35S-TBPS binding assay on rat cerebral cortex cell membrane
Design: species or system Sprague-Dawley rat
Conditions: 2 nM 35S-TBPS, GABA added, read-out: 35S-TBPS bindng test, IC50 on inhibiting the TBPS binding activity
Procedure: 1.2.1 Extraction of Cerebral Cortex Cell Membrane:
1. The cerebral cortex of male Sprague-Dawley rat was isolated.
2. A pre-chilled 0.32 M sucrose solution (one tablet of protease inhibitor was added per 100 ml) was added to the cerebral cortex (the volume of sucrose solution was 10 times the volume of the cerebral cortex). The mixture was crushed with a 50 ml glass tissue homogenizer in batches and mixed well.
3. The mixture was centrifuged at 1500 g, 4° C. for 10 minutes, and the supernatant was collected.
4. The mixture was centrifuged at 20000 g, 4° C. for 30 minutes, and the supernatant was discarded.
5. The precipitate was resuspended with the pre-chilled phosphate buffer saline (PBS) (one tablet of protease inhibitor was added per 100 ml). An average of 4 ml of PBS was added per rat, and the mixture was mixed well with a glass tissue homogenizer.
6. The mixture was centrifuged at 10000 g, 4° C. for 10 minutes, and the supernatant was discarded.
7. Steps 5 and 6 were repeated three times.
8. Finally, the precipitate was resuspended with 4 volumes of PBS. The resulting solution was dispensed, frozen in liquid nitrogen, and stored at −80° C.
9. The protein concentration was measured by the bicinchoninic acid (BCA) method.
1.2.2 ^35S-TBPS Binding Assay
1. 230 μL of PBS was added to each well of a well plate with 1.1 ml volume.
2. 60 μL of the cerebral cortex cell membrane (5 μg/μL) solution was added to each well, and the mixture was mixed well.
3. The test compound (3 μL per well) was added, and the plate was incubated at 25° C. for 5 minutes. The DMSO concentration was 1%. The initial compound concentration was 1 NM, and a 3-fold dilution in gradient was carried out to obtain a total of 8 gradients and 2 replicates. 1% DMSO was used as a negative control, and 10 μM P026-2 was used as a positive control.
4. GABA was added at a final concentration of […], and incubated at 25° C. for 5 minutes. 1 mM GABA solution was formulated, and 1.5 μL of the solution was added to each well.
5. ^35S-TBPS was added at a final concentration of 2 nM. The concentration of isotope mother solution was 9.7 μM. After dilution with PBS for 100 times, 6 μL of the diluted isotope solution was added to each well.
6. The plate was incubated at 4° C. for 20 hours.
7. The FilterMate GF/C plate was pre-treated with 0.5% PEI, and incubated at 4° C. for 1 hour.
8. The FilterMate GF/C plate was washed with Universal Harvester twice, 50 ml PBS each time.
9. The reaction solution was transferred to the GF/C plate, and each well was washed 4 times with 900 μL PBS.
10. The washed GF/C plate was placed at 55° C. and dried for 10 minutes.
11. 40 μL of scintillation solution was added to each well, and the CPM value was read with TopCount.
1.2.3 Experimental Data Processing Method:
In the experiment, the CPM (counts per minute) value was read with TopCount. According to the readings of the High control (DMSO) and the Low control (10 μM of the positive compound) experimental groups, the % inhibition was calculated based on the following formula: % Inhibition=100×(CPMHigh control−CPMSample)/(CPMHigh control−CPMLow control)
The IC50 of the compound was calculated according to the following 4-parameter nonlinear logic formula: Y=Bottom+(Top−Bottom)/(1+10^((Log IC50−X)*Hill Slope)),
The effect of the compound of the present invention on the TBPS binding activity was determined by the above test, and the measured IC50 values are shown in Table 1.

Row | Structure (SMILES) | IC50
1 | C[C@@]1(O)CC[C@@]2(F)[C@H](CC[C@H]3[C@@H]4CC[C@H](C(=O)Cn5nnc6ccccc65)[C@@]4(C)CC[C@@H]32)C1 [Example 15, 2-(1H-Benzo[d][1,2,3]triazol-1-yl)-1-((3R,5R,8S,9S,10R,13S,14S,17S)-10-fluoro-3-hydroxy-3,13-dimethylhexadecahydro-1H-cyclopenta[a]phenanthren-17-yl)ethan-1-one] | 8.7 nM
2 | COc1ccc2c(c1)nnn2CC(=O)[C@H]1CC[C@H]2[C@@H]3CC[C@@H]4C[C@](C)(O)CC[C@]4(F)[C@H]3CC[C@]12C [Example 48, 1-((3R,5R,8S,9S,10R,13S,14S,17S)-10-Fluoro-3-hydroxy-3,13-dimethylhexadecahydro-1H-cyclopenta[a]phenanthren-17-yl)-2-(5-methoxy-1H-benzo[d][1,2,3]triazol-1-yl)ethan-1-one] | 7.3 nM
3 | C[C@@]1(O)CC[C@@]2(F)[C@H](CC[C@H]3[C@@H]4CC[C@H](C(=O)COc5ccc(F)cc5C#N)[C@@]4(C)CC[C@@H]32)C1 [Example 30, 5-Fluoro-2-(2-((3R,5R,8S,9S,10R,13S,14S,17S)-10-fluoro-3-hydroxy-3,13-dimethylhexadecahydro-1H-cyclopenta[a]phenanthren-17-yl)-2-oxoethoxy)benzonitrile] | 7.2 nM
4 | C[C@@]1(O)CC[C@@]2(F)[C@H](CC[C@H]3[C@@H]4CC[C@H](C(=O)Cn5cc([N+](=O)[O-])cn5)[C@@]4(C)CC[C@@H]32)C1 [Example 58, 1-((3R,5R,8S,9S,10R,13S,14S,17S)-10-Fluoro-3-hydroxy-3,13-dimethylhexadecahydro-1H-cyclopenta[a]phenanthren-17-yl)-2-(4-nitro-1H-pyrazol-1-yl)ethan-1-one] | 37.8 nM
5 | C[C@@]1(O)CC[C@@]2(F)[C@H](CC[C@H]3[C@@H]4CC[C@H](C(=O)Cn5nccn5)[C@@]4(C)CC[C@@H]32)C1 [Example 10, 1-((3R,5R,8S,9S,10R,13S,14S,17S)-10-Fluoro-3-hydroxy-3,13-dimethylhexadecahydro-1H-cyclopenta[a]phenanthren-17-yl)-2-(2H-1,2,3-triazol-2-yl)ethan-1-one] | 5.3 nM
6 | C[C@@]1(O)CC[C@@]2(F)[C@H](CC[C@H]3[C@@H]4CC[C@H](C(=O)Cn5cc6ccncc6n5)[C@@]4(C)CC[C@@H]32)C1 [Example 16, 1-((3R,5R,8S,9S,10R,13S,14S,17S)-10-Fluoro-3-hydroxy-3,13-dimethylhexadecahydro-1H-cyclopenta[a]phenanthren-17-yl)-2-(2H-pyrazolo[3,4-c]pyridin-2-yl)ethan-1-one] | 40 nM
7 | C[C@]1(O)CC[C@@]2(F)[C@H](CC[C@H]3[C@@H]4CC[C@H](C(=O)CNS(=O)(=O)c5ccccc5)[C@@]4(C)CC[C@@H]32)C1 [Example 71, N-(2-((3S,5R,8S,9S,10R,13S,14S,17S)-10-Fluoro-3-hydroxy-3,13-dimethylhexadecahydro-1H-cyclopenta[a]phenanthren-17-yl)-2-oxoethyl)benzenesulfonamide] | 49 nM
8 | COc1ccc2nnn(CC(=O)[C@H]3CC[C@H]4[C@@H]5CC[C@@H]6C[C@](C)(O)CC[C@]6(F)[C@H]5CC[C@]34C)c2c1 [Example 47, 1-((3R,5R,8S,9S,10R,13S,14S,17S)-10-Fluoro-3-hydroxy-3,13-dimethylhexadecahydro-1H-cyclopenta[a]phenanthren-17-yl)-2-(6-methoxy-1H-benzo[d][1,2,3]triazol-1-yl)ethan-1-one] | 7.3 nM
9 | C[C@@]1(O)CC[C@@]2(F)[C@H](CC[C@H]3[C@@H]4CC[C@H](C(=O)COc5ccc(C#N)cc5F)[C@@]4(C)CC[C@@H]32)C1 [Example 31, 3-Fluoro-4-(2-((3R,5R,8S,9S,10R,13S,14S,17S)-10-fluoro-3-hydroxy-3,13-dimethylhexadecahydro-1H-cyclopenta[a]phenanthren-17-yl)-2-oxoethoxy)benzonitrile] | 11.1 nM
10 | C[C@@]1(O)CC[C@@]2(F)[C@H](CC[C@H]3[C@@H]4CC[C@H](C(=O)Cn5ccc(C#N)n5)[C@@]4(C)CC[C@@H]32)C1 [Example 3, 1-(2-((3R,5R,8S,9S,10R,13S,14S,17S)-10-Fluoro-3-hydroxy-3,13-dimethylhexadecahydro-1H-cyclopenta[a]phenanthren-17-yl)-2-oxoethyl)-1H-pyrazole-3-carbonitrile] | 10.9 nM
11 | COc1ccc2nn(CC(=O)[C@H]3CC[C@H]4[C@@H]5CC[C@@H]6C[C@](C)(O)CC[C@]6(F)[C@H]5CC[C@]34C)nc2c1 [Example 46, 1-((3R,5R,8S,9S,10R,13S,14S,17S)-10-Fluoro-3-hydroxy-3,13-dimethylhexadecahydro-1H-cyclopenta[a]phenanthren-17-yl)-2-(5-methoxy-2H-benzo[d][1,2,3]triazol-2-yl)ethan-1-one] | 5.6 nM
12 | C[C@@]1(O)CC[C@@]2(F)[C@H](CC[C@H]3[C@@H]4CC[C@H](C(=O)COc5ccc(F)cc5F)[C@@]4(C)CC[C@@H]32)C1 [Example 36, 2-(2,4-Difluorophenoxy)-1-((3R,5R,8S,9S,10R,13S,14S,17S)-10-fluoro-3-hydroxy-3,13-dimethylhexadecahydro-1H-cyclopenta[a]phenanthren-17-yl)ethan-1-one] | 13.7 nM
13 | C[C@@]1(O)CC[C@@]2(F)[C@H](CC[C@H]3[C@@H]4CC[C@H](C(=O)Cn5cc(C(=O)N6CCC6)cn5)[C@@]4(C)CC[C@@H]32)C1 [Example 62, 2-(4-(Azetidine-1-carbonyl)-1H-pyrazol-1-yl)-1-((3R,5R,8S,9S,10R,13S,14S,17S)-10-fluoro-3-hydroxy-3,13-dimethylhexadecahydro-1H-cyclopenta[a]phenanthren-17-yl)ethan-1-one] | 7.1 nM
14 | C[C@@]1(O)CC[C@@]2(F)[C@H](CC[C@H]3[C@@H]4CC[C@H](C(=O)CNc5ccccc5F)[C@@]4(C)CC[C@@H]32)C1 [Example 24, 1-((3R,5R,8S,9S,10R,13S,14S,17S)-10-Fluoro-3-hydroxy-3,13-dimethylhexadecahydro-1H-cyclopenta[a]phenanthren-17-yl)-2-((2-fluorophenyl)amino)ethan-1-one] | 10.2 nM
15 | C[C@@]1(O)CC[C@@]2(F)[C@H](CC[C@H]3[C@@H]4CC[C@H](C(=O)CNc5cccc(F)c5)[C@@]4(C)CC[C@@H]32)C1 [Example 25, 1-((3R,5R,8S,9S,10R,13S,14S,17S)-10-Fluoro-3-hydroxy-3,13-dimethylhexadecahydro-1H-cyclopenta[a]phenanthren-17-yl)-2-((3-fluorophenyl)amino)ethan-1-one] | 6.7 nM
16 | Cc1cnn(CC(=O)[C@H]2CC[C@H]3[C@@H]4CC[C@@H]5C[C@](C)(O)CC[C@]5(F)[C@H]4CC[C@]23C)c1 [Example 11, 1-((3R,5R,8S,9S,10R,13S,14S,17S)-10-Fluoro-3-hydroxy-3,13-dimethylhexadecahydro-1H-cyclopenta[a]phenanthren-17-yl)-2-(4-methyl-1H-pyrazol-1-yl)ethan-1-one] | 41.3 nM
17 | C[C@@]1(O)CC[C@@]2(F)[C@H](CC[C@H]3[C@@H]4CC[C@H](C(=O)Cn5cc(C#N)c(C6CC6)n5)[C@@]4(C)CC[C@@H]32)C1 [Example 40, 3-Cyclopropyl-1-(2-((3R,5R,8S,9S,10R,13S,14S,17S)-10-fluoro-3-hydroxy-3,13-dimethylhexadecahydro-1H-cyclopenta[a]phenanthren-17-yl)-2-oxoethyl)-1H-pyrazole-4-carbonitrile] | 12 nM
